Target: NotF (Aspergillus sp. MF297-2, UniProt E0Y3X1)
Type: binding
Settings: ternary complex with brevianamide F; non-hydrolysable DMAPP analogue

Chain of NotF (E0Y3X1 whole entry): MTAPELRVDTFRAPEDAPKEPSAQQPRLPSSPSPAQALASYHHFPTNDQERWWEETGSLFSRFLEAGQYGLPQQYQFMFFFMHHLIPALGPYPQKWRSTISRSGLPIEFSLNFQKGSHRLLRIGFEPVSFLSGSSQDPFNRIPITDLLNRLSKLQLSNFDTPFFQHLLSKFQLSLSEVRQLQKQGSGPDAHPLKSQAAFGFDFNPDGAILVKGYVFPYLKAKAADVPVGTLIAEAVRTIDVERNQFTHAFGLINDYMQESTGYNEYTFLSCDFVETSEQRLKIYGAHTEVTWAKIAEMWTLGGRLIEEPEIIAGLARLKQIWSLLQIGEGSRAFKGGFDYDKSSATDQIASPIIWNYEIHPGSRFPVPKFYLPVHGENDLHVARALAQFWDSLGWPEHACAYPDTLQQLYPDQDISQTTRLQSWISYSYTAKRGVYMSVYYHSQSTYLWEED

CC(C)=CCSP(=O)(O)OP(=O)(O)O [dimethylallyl S-thiolodiphosphate]
X-ray crystal structure (3.0 A), co-crystallisation: a non-hydrolysable DMAPP analog, dimethylallyl S-thiolodiphosphate (DMSPP), was determined

Reference: article PMC9831672 (Journal of the American Chemical Society, 2022)
